Like-named read-outs stand apart in the source and are kept apart here.
Assays:
[1] = system: leukemic (Jurkat, MOLT-4), colon (HT-29), cervix (HeLa), breast (MCF-7) cancer cells; conditions: MOLT-4, HT-29, HeLa, read-out: IC50 values, proliferation and viability; cited from earlier work
[2] = ref PubChem; cited from earlier work
butyrylcholinesterase [3] = target: T1, butyrylcholinesterase (Homo sapiens, UniProt P06276); conditions: read-out: IC50 butyrylcholinesterase; alkaloids isolated from Berberis vulgaris root bark; cited from earlier work
T1 construct: purchased Sigma-Aldrich (St. Louis, MO, USA)
T1 sequence (P06276 29-602): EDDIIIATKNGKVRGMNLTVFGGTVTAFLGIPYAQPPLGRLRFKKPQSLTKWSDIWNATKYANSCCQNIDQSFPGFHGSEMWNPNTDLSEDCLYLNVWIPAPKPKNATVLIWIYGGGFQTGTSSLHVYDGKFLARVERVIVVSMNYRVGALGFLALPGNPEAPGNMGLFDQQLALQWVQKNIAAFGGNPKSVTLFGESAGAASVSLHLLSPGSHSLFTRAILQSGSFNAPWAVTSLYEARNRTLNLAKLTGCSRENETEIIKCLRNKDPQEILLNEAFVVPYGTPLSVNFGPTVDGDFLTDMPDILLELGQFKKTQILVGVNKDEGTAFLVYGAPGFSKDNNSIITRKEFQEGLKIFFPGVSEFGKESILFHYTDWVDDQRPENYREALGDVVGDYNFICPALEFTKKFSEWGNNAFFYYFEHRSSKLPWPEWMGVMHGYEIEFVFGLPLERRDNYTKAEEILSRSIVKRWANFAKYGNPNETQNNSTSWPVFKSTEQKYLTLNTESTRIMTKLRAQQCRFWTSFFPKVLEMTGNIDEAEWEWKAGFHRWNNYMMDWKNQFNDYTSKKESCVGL

acetylcholinesterase [4] = target: T2, acetylcholinesterase (Homo sapiens, UniProt P22303); type: biochemical; conditions: alkaloid standards; 15 min at 37 °C, pH 7.8
T2 construct: purchased Sigma-Aldrich (St. Louis, MO, USA)
T2 sequence (P22303 32-614, species assumed): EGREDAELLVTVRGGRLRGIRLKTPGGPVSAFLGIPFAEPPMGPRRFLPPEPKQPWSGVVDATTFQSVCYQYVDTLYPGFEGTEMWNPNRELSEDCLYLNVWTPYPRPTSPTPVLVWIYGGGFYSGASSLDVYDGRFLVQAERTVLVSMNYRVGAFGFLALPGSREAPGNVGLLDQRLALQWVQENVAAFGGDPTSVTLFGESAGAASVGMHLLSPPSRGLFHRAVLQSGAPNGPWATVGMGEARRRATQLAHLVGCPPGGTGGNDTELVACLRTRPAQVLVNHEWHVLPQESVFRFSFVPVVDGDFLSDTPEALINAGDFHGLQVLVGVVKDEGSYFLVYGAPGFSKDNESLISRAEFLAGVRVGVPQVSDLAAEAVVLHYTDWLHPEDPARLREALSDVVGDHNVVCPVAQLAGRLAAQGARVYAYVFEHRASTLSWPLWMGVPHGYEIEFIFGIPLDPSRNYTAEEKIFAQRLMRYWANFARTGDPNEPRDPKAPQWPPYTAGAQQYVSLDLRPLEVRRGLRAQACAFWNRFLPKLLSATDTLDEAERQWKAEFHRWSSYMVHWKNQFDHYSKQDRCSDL
Experimental: (§1) All experiments were repeated three times.
S1. Samples preparation for determination of acetylcholinesterase inhibitory activity A stock solutions of reagents were prepared by dissolving of acetylcholinesterase at con-centrations 200 U/mL or 2 U/mL, acetylthiocholine iodide at concentration 0.0125 M and 5′- dithiobis-(2-nitrobenzoic acid) at concentration 0.00167 M in phosphate buffer at pH 7.8.
Samples for determination of acetylcholinesterase inhibitory activity were obtained by mixing of 50 µL of acetylthiocholine iodide, 50 µL of 5′-dithiobis-(2-nitrobenzoic acid), 50 µL of […]
as §1
All experiments were performed in triplicates.

butyrylcholinesterase [5] = target: T1, butyrylcholinesterase; assay: Butyrylcholinesterase inhibition, Ellman method with HPLC-DAD; type: biochemical; conditions: alkaloid standards; 15 min at 37 °C, pH 7.8
acetylcholinesterase [6] = target: T2, acetylcholinesterase; assay: Kinetic study of acetylcholinesterase inhibition (Lineweaver-Burk plots and replots); type: biochemical; conditions: for type of acetylcholinesterase inhibition: Lineweaver-Burk plots
Experimental: Lineweaver–Burk and Dixon plots were used for the determination of the type of inhibition and inhibition constants (Ki value) of these alkaloids. […] The Ki value was estimated from the replots of the slope of the individual Lineweaver–Burk plots versus the inhibitor concentrations (Figure 5B). […] The type of acetylcholinesterase inhibition and Ki value was determined for palmatine by the same method.

butyrylcholinesterase [7] = target: T1, butyrylcholinesterase; conditions: cited from earlier work
acetylcholinesterase [8] = target: T2, acetylcholinesterase; conditions: cited from earlier work
acetylcholinesterase [9] = target: T2, acetylcholinesterase; conditions: previously reported; cited from earlier work
[10] = system: human melanoma cell line (A375); assay: MTT cell viability, melanoma cell line A375; type: cell-based; conditions: 24 h incubation
Experimental: (§2) The MTT assay, which measures the activity of mitochondrial metabolism, was used for the determination of the influence of alkaloid standards on cancer cell viability.
(§3) For the evaluation of the effect of Berberis species, extracts against normal human skin fibroblast cells (WS1) were used. Both cell lines were received from the American Type Culture Collection (ATCC; Manassas, VA, USA). A375 and WS1 cells were cultured in Dulbecco’s Modified Eagle’s Medium (DMEM) (Sigma Aldrich, St. Louis, MO, USA). The procedure used in investigations of cell viability was described previously. Inactivated fetal bovine serum, penicillin, and streptomycin were added to cells maintained in a CO2 atmosphere at 37 °C. The suspension of cells was applied to a 96-well plate and incubated for 24 h. Next, the medium was removed from the wells, and Berberis species extracts or alkaloid standards were added to the wells. After incubation, MTT working solution was added to each well, and the plate was again incubated for 3 h. Subsequently, an SDS solution was added, and the concentration of the dissolved formazan was measured (for details, see Section S3. Procedure for investigation of cell viability). For the calculation of IC50 values obtained for the plant extracts and alkaloid standards, the IC50 calculator (https://www.aatbio.com/tools/ic50-calculator, accessed on 16 January 2024) was used.
S1. […]

[11] = system: human skin fibroblasts (WS1 cell line); assay: MTT cell viability, skin fibroblasts WS1; type: cell-based
Experimental: as §2, §3
S1. […]

Compound	Hydrogen bond acceptor count [2]	Hydrogen bond donor count [2]	Log P [2]	Polar surface area [2] [Å²]	further results
Bersavine					IC50 [1]: 8.1 to 11 µM
COc1ccc2c(c[n+](C)c3c4cc5c(cc4ccc23)OCO5)c1OC [Chelerythrine, chelerythrine]	4	0	4.6	40.8	
CN1CCc2cc3c(cc2C(=O)Cc2ccc4c(c2C1)OCO4)OCO3 [Protopine, protopine]	6	0	2.8	57.2	
COc1cc2c3cc1Oc1c(O)c(OC)cc4c1[C@H](Cc1ccc(cc1)Oc1cc(ccc1O)C[C@H]3N(C)CC2)N(C)CC4 [aromoline]					IC50 (butyrylcholinesterase [3]): 0.82 µM
COc1cc2c(cc1OC)-c1cc3ccc(OC)c(OC)c3c[n+]1CC2 [Palmatine, palmatine]	4	0	3.7	40.8	IC50 (acetylcholinesterase [4]): 29.2 ± 1.59 µM; IC50 Values Acetylcholinesterase (acetylcholinesterase [4]): 10.27 µg/mL; IC50 (butyrylcholinesterase [5]): 189 ± 42.5 µM; IC50 Values Butyrylcholinesterase (butyrylcholinesterase [5]): 66.74 µg/mL; type of acetylcholinesterase inhibition (acetylcholinesterase [6]): mixed-type; Ki (acetylcholinesterase [6]; replot of Lineweaver-Burk slopes vs inhibitor concentration, substrate acetylthiocholine iodide): 17 µM; IC50 butyrylcholinesterase (butyrylcholinesterase [7]): 116.7 µg/mL; IC50 acetylcholinesterase (acetylcholinesterase [8]): 7.4 µg/mL; mode of acetylcholinesterase inhibition (acetylcholinesterase [9]): mixed mode
N.N.[Cl][Pt][Cl] [Cisplatin, cisplatin]					IC50 A375 [10]: 23.8 µg/mL; IC50 WS1 ([11]; human skin fibroblast cell line WS1, MTT, 24 h incubation): 44.07 µg/mL
C[n+]1cc2c3c(ccc2c2ccc4cc5c(cc4c21)OCO5)OCO3 [Sanguinarine, sanguinarine]	4	0	4.4	40.8	
COc1ccc2cc3[n+](cc2c1OC)CCc1cc2c(cc1-3)OCO2 [Berberine, berberine]	4	0	3.6	40.8	type of acetylcholinesterase inhibition (acetylcholinesterase [6]): noncompetitive; IC50 ([11]; Homo sapiens, WS1, 24 h, read-out: IC50 WS1): 95.3 µg/mL; mode of acetylcholinesterase inhibition (acetylcholinesterase [9]): non-competitive

Reference: paper PMC10933966, “In Vitro and In Silico of Cholinesterases Inhibition and In Vitro and In Vivo Anti-Melanoma Activity Investigations of Extracts Obtained from Selected Berberis Species” (Molecules, 2024)
